Experimental data from ChEMBL document CHEMBL1201862, “PubChem BioAssay data set” (2004).
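Briefly, cells in 96-well plates were exposed to five compound concentrations for 48 h, and endpoints were estimated by linear interpolation. GI50 marks 50% less growth.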 Active and inactive are the calls of the source. Rule as the data show it: active = GI50 up to about 1.1 µM and inactive = higher.

Experiments:
Assay in all cases: NCI tumour cell line growth inhibition, 48 h
MOLT-4 = test system: MOLT-4
SF-539 = test system: SF-539
HT-29 = test system: HT-29
SW-620 = test system: SW-620
SF-295 = test system: SF-295
RPMI-8226 = test system: RPMI-8226
UO-31 = test system: UO-31
HCT-116 = test system: HCT-116
NCI-H226 = test system: NCI-H226
HOP-62 = test system: HOP-62
SNB-19 = test system: SNB-19
NCI-H460 = test system: NCI-H460
SF-268 = test system: SF-268
SK-MEL-2 = test system: SK-MEL-2
HL-60 = test system: HL-60
NCI/ADR-RES = test system: NCI/ADR-RES
PC-3 = test system: PC-3
Hs-578T = test system: Hs-578T

Measured: GI50

CCOc1ccc(OP2(=O)NC(=O)C=C(C)N2)cc1 (configuration not stated)
inactive: MOLT-4 > 100 µM | SF-539 > 100 µM | HT-29 > 100 µM | SW-620 > 100 µM | SF-295 > 100 µM | RPMI-8226 > 100 µM | UO-31 > 100 µM | HCT-116 > 100 µM | NCI-H226 > 100 µM | HOP-62 > 100 µM | SNB-19 > 100 µM | NCI-H460 > 100 µM | SF-268 > 100 µM | SK-MEL-2 > 100 µM | HL-60 37.8 µM

O=C(c1ccncc1)n1nc(-c2ccccc2)c(/N=N/c2ccc([N+](=O)[O-])cc2)c1-c1ccccc1
inactive: MOLT-4 48.6 µM | SF-539 89.5 µM | HT-29 38.7 µM | SW-620 > 100 µM | SF-295 44.7 µM | RPMI-8226 28.4 µM | UO-31 15.9 µM | HCT-116 73.6 µM | NCI-H226 2.37 µM | HOP-62 39.4 µM | SNB-19 31.6 µM | SF-268 49.5 µM | SK-MEL-2 77.8 µM | HL-60 89.3 µM

COc1ccc2c([nH]c3cc(O)c(C)cc32)c1C=O
inactive: MOLT-4 11.2 µM | SF-539 > 25 µM | HT-29 > 25 µM | SW-620 > 25 µM | RPMI-8226 > 25 µM | UO-31 > 25 µM | HCT-116 > 25 µM | NCI-H226 > 25 µM | HOP-62 > 25 µM | SNB-19 > 25 µM | NCI-H460 11.2 µM | SF-268 > 25 µM | SK-MEL-2 > 25 µM | HL-60 15.9 µM

CC1C=CC(C(N)C(=O)O)O1 (configuration not stated)
inactive: MOLT-4 > 100 µM | SF-539 > 100 µM | HT-29 > 100 µM | SW-620 > 100 µM | SF-295 > 100 µM | RPMI-8226 > 100 µM | UO-31 > 100 µM | HCT-116 > 100 µM | NCI-H226 > 100 µM | HOP-62 > 100 µM | SNB-19 > 100 µM | NCI-H460 > 100 µM | SF-268 > 100 µM | SK-MEL-2 > 100 µM | HL-60 > 100 µM

C[Si](C)(C)/C=C/CN1C(=O)CCC1O (configuration not stated)
inactive: MOLT-4 > 100 µM | SF-539 > 100 µM | HT-29 > 100 µM | SW-620 > 100 µM | SF-295 > 100 µM | RPMI-8226 > 100 µM | UO-31 > 100 µM | HCT-116 > 100 µM | NCI-H226 > 100 µM | HOP-62 > 100 µM | SNB-19 > 100 µM | NCI-H460 > 100 µM | SF-268 > 100 µM | SK-MEL-2 > 100 µM | HL-60 > 100 µM

Nn1c(S)nnc1N/N=C1/C(=O)Nc2c(Cl)cc(Cl)cc21
inactive: MOLT-4 37.2 µM | SF-539 > 100 µM | HT-29 > 100 µM | SW-620 > 100 µM | SF-295 > 100 µM | RPMI-8226 > 100 µM | UO-31 47.6 µM | HCT-116 > 100 µM | NCI-H226 52.1 µM | HOP-62 50.4 µM | SNB-19 76 µM | NCI-H460 > 100 µM | SF-268 > 100 µM | SK-MEL-2 > 100 µM | HL-60 69.2 µM

Nc1ccc2nc(Nc3ccc(Cl)c(Cl)c3)cnc2c1
inactive: MOLT-4 1.6 µM | SF-539 29.5 µM | HT-29 16.2 µM | SW-620 17.9 µM | SF-295 > 10 µM | RPMI-8226 12.2 µM | UO-31 11.9 µM | HCT-116 18.1 µM | NCI-H226 15.5 µM | HOP-62 18.9 µM | SNB-19 17.3 µM | NCI-H460 17.6 µM | SF-268 13.9 µM | SK-MEL-2 20 µM | HL-60 8.47 µM

O=C(CC1C(=O)Nc2ccccc2[S+]1[O-])Nc1cc(Cl)ccc1Cl (configuration not stated)
inactive: MOLT-4 > 100 µM | SF-539 > 100 µM | HT-29 > 100 µM | SW-620 > 100 µM | SF-295 > 100 µM | RPMI-8226 > 100 µM | UO-31 > 100 µM | HCT-116 > 100 µM | NCI-H226 > 100 µM | SNB-19 > 100 µM | NCI-H460 > 100 µM | SF-268 > 100 µM | SK-MEL-2 > 100 µM | HL-60 > 100 µM

FC(F)(F)c1cccc2ns[s+]c12
inactive: MOLT-4 > 100 µM | SF-539 > 100 µM | HT-29 > 100 µM | SW-620 > 100 µM | SF-295 > 100 µM | UO-31 > 100 µM | HCT-116 > 100 µM | NCI-H226 > 100 µM | HOP-62 > 100 µM | SNB-19 > 100 µM | NCI-H460 > 100 µM | SF-268 > 100 µM | SK-MEL-2 > 100 µM | HL-60 > 100 µM

CC1(C)C(O)C[C@]23CCC[C@](C)(C[C@@H](O)C12)C3 (some centres not stated)
inactive: MOLT-4 > 100 µM | HT-29 > 100 µM | NCI/ADR-RES > 100 µM | SW-620 > 100 µM | SF-295 > 100 µM | RPMI-8226 > 100 µM | UO-31 > 100 µM | PC-3 > 100 µM | NCI-H226 > 100 µM | HOP-62 > 100 µM | SNB-19 > 100 µM | NCI-H460 > 100 µM | SF-268 > 100 µM | SK-MEL-2 > 100 µM | Hs-578T > 100 µM | HL-60 > 100 µM
